The values below come from patent US10822348B2, “Inhibitors of Bruton's tyrosine kinase and methods of their use” (JANSSEN PHARMACEUTICA NV, priority 2015, dated 2020).

Molecules are shown by their SMILES.

Chain of unphosphorylated-BTK kinase domain (UP-BTK), GST-tagged human BTK (389-659aa) (Q06187 389-659): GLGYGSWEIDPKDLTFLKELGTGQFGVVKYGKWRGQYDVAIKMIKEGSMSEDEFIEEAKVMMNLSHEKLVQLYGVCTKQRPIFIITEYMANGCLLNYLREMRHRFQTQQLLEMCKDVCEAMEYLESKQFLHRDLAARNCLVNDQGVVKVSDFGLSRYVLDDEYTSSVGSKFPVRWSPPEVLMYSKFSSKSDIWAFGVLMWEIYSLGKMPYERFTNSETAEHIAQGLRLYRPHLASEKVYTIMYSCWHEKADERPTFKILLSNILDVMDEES

The first assay concerns the target unphosphorylated-BTK kinase domain (UP-BTK), GST-tagged human BTK (389-659aa) (Homo sapiens (Human), UniProt Q06187). The assay can be described thus: BTK kinase Lanthascreen binding assay. The note with it: negative log of the IC50 in molar; 60 minutes incubation, 50 nM Tracer 236. How it is done: BTK Kinase Lanthascreen Binding Assay:
A BTK kinase lanthascreen binding assay monitors compound binding to unphosphorylated-BTK kinase domain (UP-BTK), by competing with a fluorescent labeled tracer. […] Data were analyzed using Xlfit™ version 5.3 from ID Business Solutions (Guildford), Microsoft Excel add-in. pIC50 refers to the negative log of the IC50 in molar.
Turning to `C=CC(=O)N1CCC[C@@H](NC(=O)c2sc3nccc4c3c2NC(=O)N4c2ccc(Oc3ccccc3)cc2C)C1` (single isomer, unassigned) [Example 9, (R)—N-(1-Acryloylpiperidin-3-yl)-5-(*S)-(2-methyl-4-phenoxyphenyl)-4-oxo-4,5-dihydro-3H-1-thia-3,5,8-triazaacenaphthylene-2-carboxamide], the “BTK_I_binding pIC50” value came to 8.1. Regarding `CNC/C=C/C(=O)N1CCC[C@@H](NC(=O)c2sc3nccc4c3c2NC(=O)N4c2ccc(Oc3ccccc3)cc2C)C1` (single isomer, unassigned) [Example 23, (R,E)-5-(*S)-(2-Methyl-4-phenoxyphenyl)-N-(1-(4-(methylamino)but-2-enoyl)piperidin-3-yl)-4-oxo-4,5-dihydro-3H-1-thia-3,5,8-triazaacenaphthylene-2-carboxamide], the “BTK_I_binding pIC50” value stood at 7.5.

As to `CNC/C=C/C(=O)N1CCC[C@@H](NC(=O)c2sc3nccc4c3c2NC(=O)N4c2ccc(Oc3ccccc3)cc2C)C1` (single isomer, unassigned) [Example 38, (R,E)-5-(*S)-(2-Methyl-4-phenoxyphenyl)-N-(1-(4-(methylamino)but-2-enoyl)piperidin-3-yl)-4-oxo-4,5-dihydro-3H-1-thia-3,5,8-triazaacenaphthylene-2-carboxamide], the “BTK_I_binding pIC50” value stood at 7.3. As for `C=CC(=O)N1CCC[C@H](NC(=O)c2sc3nccc4c3c2NC(=O)N4c2ccc(Oc3ccccc3)cc2C)C1` (single isomer, unassigned) [Example 44, (S)—N-(1-Acryloylpiperidin-3-yl)-5-(*S)-(2-methyl-4-phenoxyphenyl)-4-oxo-4,5-dihydro-3H-1-thia-3,5,8-triazaacenaphthylene-2-carboxamide], the “BTK_I_binding pIC50” value is on record as 7.4.

For the molecule `Cc1cc(Oc2ccccc2)ccc1N1C(=O)Nc2c(C(=O)N[C@@H]3CCCN(C(=O)CN(C)C)C3)sc3nccc1c23` (single isomer, unassigned) [Example 56, (R)—N-(1-(2-(Dimethylamino)acetyl)piperidin-3-yl)-5-(*S)-(2-methyl-4-phenoxyphenyl)-4-oxo-4,5-dihydro-3H-1-thia-3,5,8-triazaacenaphthylene-2-carboxamide], the “BTK_I_binding pIC50” value is recorded as 7.4. With `C=CC(=O)N1CCC[C@H](NC(=O)c2sc3nccc4c3c2NC(=O)N4c2ccc(Oc3ccccc3)cc2C)C1` (single isomer, unassigned) [Example 82, (S)—N-(1-acryloylpiperidin-3-yl)-5-(*S)-(2-methyl-4-phenoxyphenyl)-4-oxo-4,5-dihydro-3H-1-thia-3,5,8-triazaacenaphthylene-2-carboxamide], the “BTK_I_binding pIC50” value is on record as 7.2. `C=CC(=O)N1CCC[C@@H](NC(=O)c2sc3nccc4c3c2NC(=O)N4c2ccc(Oc3ccccc3)cc2C)C1` (single isomer, unassigned) [Example 87, (R)—N-(1-Acryloylpiperidin-3-yl)-5-(*R)-(2-methyl-4-phenoxyphenyl)-4-oxo-4,5-dihydro-3H-1-thia-3,5,8-triazaacenaphthylene-2-carboxamide]: the “BTK_I_binding pIC50” value is 6.9. Take `Cc1cc(Oc2ccccc2)ccc1N1C(=O)Nc2c(C(=O)N[C@H]3CCCOC3)sc3nccc1c23` (single isomer, unassigned) [Example 88, (S)-5-(*S)-(2-Methyl-4-phenoxyphenyl)-4-oxo-N-(tetrahydro-2H-pyran-3-yl)-4,5-dihydro-3H-1-thia-3,5,8-triazaacenaphthylene-2-carboxamide]: the “BTK_I_binding pIC50” value was determined as 7.6. With `Cc1cc(Oc2ccccc2)ccc1N1C(=O)Nc2c(C(=O)N[C@@H]3CCCOC3)sc3nccc1c23` (single isomer, unassigned) [Example 96, (R)-5-(*S)-(2-Methyl-4-phenoxyphenyl)-4-oxo-N-(tetrahydro-2H-pyran-3-yl)-4,5-dihydro-3H-1-thia-3,5,8-triazaacenaphthylene-2-carboxamide], the “BTK_I_binding pIC50” value was determined as 7.8.

For the molecule `Cc1cc(Oc2ccccc2)ccc1N1C(=O)Nc2c(C(=O)N[C@@H]3CCCN(C(=O)/C(C#N)=C/C(C)(C)N4CCOCC4)C3)sc3nccc1c23` (single isomer, unassigned) [Example 112, (R,E)-N-(1-(2-Cyano-4-methyl-4-morpholinopent-2-enoyl)piperidin-3-yl)-5-(*R)-(2-methyl-4-phenoxyphenyl)-4-oxo-4,5-dihydro-3H-1-thia-3,5,8-triazaacenaphthylene-2-carboxamide], the “BTK_I_binding pIC50” value was found to be 6.9. The same measure, in the same setting: then `Cc1cc(Oc2ccccc2)ccc1N1C(=O)Nc2c(C(=O)N[C@@H]3CCCN(C)C3)sc3nccc1c23` (single isomer, unassigned) [Example 127, (R)-5-(*S)-(2-Methyl-4-phenoxyphenyl)-N-(1-methylpiperidin-3-yl)-4-oxo-4,5-dihydro-3H-1-thia-3,5,8-triazaacenaphthylene-2-carboxamide], with 7.3; and `Cc1cc(Oc2ccccc2)ccc1N1C(=O)Nc2c(C(=O)N[C@@H]3CCN(C)C3)sc3nccc1c23` (single isomer, unassigned) [Example 147, (R)-5-(*S)-(2-Methyl-4-phenoxyphenyl)-N-(1-methylpyrrolidin-3-yl)-4-oxo-4,5-dihydro-3H-1-thia-3,5,8-triazaacenaphthylene-2-carboxamide], with 7.4.

Take `C=CC(=O)N1CC[C@@H](NC(=O)c2sc3nccc4c3c2NC(=O)N4c2ccc(Oc3ccccc3)cc2C)C1` (single isomer, unassigned) [Example 169, (R)—N-(1-Acryloylpyrrolidin-3-yl)-5-(*R)-(2-methyl-4-phenoxyphenyl)-4-oxo-4,5-dihydro-3H-1-thia-3,5,8-triazaacenaphthylene-2-carboxamide]: the “BTK_I_binding pIC50” value was 6.4. As to `Cc1cc(Oc2ccccc2)ccc1N1C(=O)Nc2c(C(=O)N[C@@H]3CCCN(C)C3)sc3nccc1c23` (single isomer, unassigned) [Example 180, (R)-5-(*R)-(2-Methyl-4-phenoxyphenyl)-N-(1-methylpiperidin-3-yl)-4-oxo-4,5-dihydro-3H-1-thia-3,5,8-triazaacenaphthylene-2-carboxamide], the “BTK_I_binding pIC50” value was determined as 6.0.

As to `N#C/C(=C\C1CC1)C(=O)N1CCC[C@@H](NC(=O)c2sc3nccc4c3c2NC(=O)N4c2c(Cl)ccc3c2OCO3)C1` (single isomer, unassigned) [Example 239], the “BTK_I_binding pIC50” value is 7.4.

The assay is the same for the next values; noted with them: read-out: BTK_I_binding pIC50 (converted).
As for `C=CC(=O)N1C[C@@H](O)C[C@@H](NC(=O)c2sc3nccc4c3c2NC(=O)N4c2ccc(Oc3ccccc3)cc2C)C1` (single isomer, unassigned) [Example 2, N-((3R,5S)-1-Acryloyl-5-hydroxypiperidin-3-yl)-5-(*S)-(2-methyl-4-phenoxyphenyl)-4-oxo-4,5-dihydro-3H-1-thia-3,5,8-triazaacenaphthylene-2-carboxamide], the IC50 is 6.31 nM.

Still in this assay, the particulars now being: unphosphorylated-BTK kinase domain; 60 minutes incubation; pIC50 = negative log of the IC50 in molar.
For `C=CC(=O)N1C[C@H](NC(=O)c2sc3nccc4c3c2NC(=O)N4c2ccc(Oc3ccccc3)cc2C)C[C@@H](OC)C1` (relative stereo) [Example 481, N-((3R,5R)-1-Acryloyl-5-methoxypiperidin-3-yl)-5-(*S)-(2-methyl-4-phenoxyphenyl)-4-oxo-4,5-dihydro-3H-1-thia-3,5,8-triazaacenaphthylene-2-carboxamide], the “BTK_I_binding pIC50” value was 8.2. `C=CC(=O)N1C[C@H](NC(=O)c2sc3nccc4c3c2NC(=O)N4c2ccc(Oc3ccccc3)cc2C)C[C@H](OC)C1` (relative stereo) [Example 482, N-((3R,5S)-1-Acryloyl-5-methoxypiperidin-3-yl)-5-(*S)-(2-methyl-4-phenoxyphenyl)-4-oxo-4,5-dihydro-3H-1-thia-3,5,8-triazaacenaphthylene-2-carboxamide]: the “BTK_I_binding pIC50” value was found to be 8.0. Turning to `C=CC(=O)N1C[C@H](O)C[C@@H](NC(=O)c2sc3nccc4c3c2NC(=O)N4c2ccc(Oc3ccccc3)cc2C)C1` (relative stereo) [Example 483, N-((3R,5R)-1-Acryloyl-5-hydroxypiperidin-3-yl)-5-(*S)-(2-methyl-4-phenoxyphenyl)-4-oxo-4,5-dihydro-3H-1-thia-3,5,8-triazaacenaphthylene-2-carboxamide], the “BTK_I_binding pIC50” value amounted to 8.4.

In the case of `C=CC(=O)N1C[C@@H](F)C[C@@H](NC(=O)c2sc3nccc4c3c2NC(=O)N4c2ccc(Oc3ccccc3)cc2C)C1` (relative stereo) [Example 484, N-((3R,5S)-1-Acryloyl-5-fluoropiperidin-3-yl)-5-(*S)-(2-methyl-4-phenoxyphenyl)-4-oxo-4,5-dihydro-3H-1-thia-3,5,8-triazaacenaphthylene-2-carboxamide], the “BTK_I_binding pIC50” value stood at 8.0.

With `C=CC(=O)N1C[C@H](NC(=O)c2sc3nccc4c3c2NC(=O)N4c2ccc(Oc3ccccc3)cc2C)[C@@H](F)C1` (relative stereo) [Example 486, N-((3S,4S)-1-Acryloyl-4-fluoropyrrolidin-3-yl)-5-(*S)-(2-methyl-4-phenoxyphenyl)-4-oxo-4,5-dihydro-3H-1-thia-3,5,8-triazaacenaphthylene-2-carboxamide], the “BTK_I_binding pIC50” value is 7.8. On to `C=CC(=O)N1C[C@H](NC(=O)c2sc3nccc4c3c2NC(=O)N4c2ccc(Oc3ccccc3)cc2C)[C@@H](OC)C1` (relative stereo) [Example 490, N-((3S,4S)-1-Acryloyl-4-methoxypyrrolidin-3-yl)-5-(*S)-(2-methyl-4-phenoxyphenyl)-4-oxo-4,5-dihydro-3H-1-thia-3,5,8-triazaacenaphthylene-2-carboxamide], for which the “BTK_I_binding pIC50” value stood at 7.7. On to `C=CC(=O)N1C[C@H](NC(=O)c2sc3nccc4c3c2NC(=O)N4c2ccc(Oc3ccccc3)cc2C)[C@H](OC)C1` (relative stereo) [Example 508, N-((3S,4R)-1-Acryloyl-4-methoxypyrrolidin-3-yl)-5-(*S)-(2-methyl-4-phenoxyphenyl)-4-oxo-4,5-dihydro-3H-1-thia-3,5,8-triazaacenaphthylene-2-carboxamide], for which the “BTK_I_binding pIC50” value is on record as 7.7.
